The text below walks through data of patent publication US12441768B2, “Compositions and methods for treating endometriosis” (EndoMet Biosciences, Inc., priority 2018, dated 2025).

The target in one test is T1, β-catenin (Homo sapiens, UniProt P35222).
T1 sequence (P35222 1-781): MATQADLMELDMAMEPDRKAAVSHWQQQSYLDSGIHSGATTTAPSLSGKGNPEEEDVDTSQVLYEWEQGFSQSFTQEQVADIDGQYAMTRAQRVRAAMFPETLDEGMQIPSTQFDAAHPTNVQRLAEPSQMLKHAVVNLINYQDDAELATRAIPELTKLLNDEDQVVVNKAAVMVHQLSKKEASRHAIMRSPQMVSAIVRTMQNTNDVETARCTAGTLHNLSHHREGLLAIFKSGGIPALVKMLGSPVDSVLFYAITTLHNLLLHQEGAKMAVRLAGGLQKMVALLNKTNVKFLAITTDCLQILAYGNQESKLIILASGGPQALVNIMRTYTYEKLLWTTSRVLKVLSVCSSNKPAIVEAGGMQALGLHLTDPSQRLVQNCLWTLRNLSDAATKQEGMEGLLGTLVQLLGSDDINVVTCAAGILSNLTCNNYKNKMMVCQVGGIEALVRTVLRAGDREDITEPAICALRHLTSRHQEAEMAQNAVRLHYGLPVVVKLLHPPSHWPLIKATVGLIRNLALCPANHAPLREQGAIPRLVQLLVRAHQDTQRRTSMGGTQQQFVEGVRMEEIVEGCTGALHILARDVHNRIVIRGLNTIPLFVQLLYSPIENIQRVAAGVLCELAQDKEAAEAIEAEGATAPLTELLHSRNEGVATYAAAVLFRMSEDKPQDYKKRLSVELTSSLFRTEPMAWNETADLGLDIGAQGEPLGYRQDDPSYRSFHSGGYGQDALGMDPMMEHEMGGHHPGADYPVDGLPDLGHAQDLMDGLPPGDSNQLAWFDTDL
The test is described as follows: KD50 measurement using competitive fluorescence polarization (FP) with labelled TCF4. Format: binding. As to conditions: fluorescence polarization, β-catenin; for Kd: read-out: β-Cat FP KD. Put shortly:
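Labelled TCF4 (5 nM) mixed with 100 nM β-catenin at room temperature; inhibitor added as serial dilutions from 10 nM to 30 uM. Polarization read at excitation 470 nm/emission 520 nm; binding displacement lowers polarization. Three independent runs.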
On the technique in general: In fluorescence polarisation assays a small probe gives low polarisation when free and higher when bound to something large.

The target of test [1] is Wnt-responsive promoter (TCF/LEF). Put plainly: Wnt-dependent luciferase reporter assay. Format: cell-based, murine. As for the experimental part:
The luciferase reporter assay is commonly used as a tool to study gene expression at the transcriptional level. Peptides from libraries described herein were characterized for ability to suppress transcription in cells with luciferase expression controlled by a Wnt-responsive promoter. Peptides were added to cells transfected with luciferase gene downstream of a Wnt-responsive promoter. Cells were stimulated with Wnt3a protein and incubated with peptides from libraries described herein. Luminescence was recorded to determine the peptides with the highest β-catenin-inhibiting activity. EC50 values were calculated based on the inhibition of luminescence and expressed as concentration (uM) in Table 5.
Peptides were assessed for their ability to inhibit Wnt signaling. Murine 3T3 fibroblasts that express luciferase under a Wnt-responsive promoter (TCF/LEF) (Enzo Life Sciences, Farmingdale, NY) were stimulated with Wnt3a in the presence of increasing concentrations of peptide inhibitor (Hit 1: SEQ ID NO:217, Hit 2: SEQ ID NO:224, Hit 3: SEQ ID NO:228, Hit 4: SEQ ID NO:227, Hit 5: SEQ ID NO:220, Hit 6: SEQ ID NO:168. Hit 7: SEQ ID NO:226) or with vehicle control (FIG. 2A).
In general terms: Reporter assays use an easily measured gene product as a stand-in for the process of interest.

Where a SMILES comes first, the peptide text is derived from it. [ ]: non-standard residue; d: D form. The star is where a group is joined. ξ: configuration not given here. NMeW = CN[C@@H](Cc1c[nH]c2ccccc12)C(=O)O; Palmitoyl = CCCCCCCCCCCCCCCC(=O)*; ξαMeV = CC(C)C(C)(N)C(=O)O; ξαMeS = CC(N)(CO)C(=O)O; GABA = NCCCC(=O)O Some results are limits rather than exact numbers.

What is called Kd is the free concentration of one partner at which half of the binding sites on the other are occupied at equilibrium, for simple one-to-one binding. Broadly, the EC50 is the concentration giving half of the maximal effect. A lower EC50 goes with a more potent agent. For the compound `CC[C@H](C)[C@H]1NC(=O)[C@@H](CO)NC(=O)[C@@H](CCC(=O)O)NC(=O)[C@H](Cc2c[nH]c3ccccc23)NC(=O)CCCCn2cc(nn2)CC(C(N)=O)NC(=O)[C@H](Cc2c[nH]c3ccccc23)NC(=O)[C@H](C(C)C)NC(=O)[C@H](CCCNC(=N)N)NC(=O)[C@@H](CCC(N)=O)NC(=O)[C@@H](C(C)C)NC(=O)[C@@H](Cc2cnc[nH]2)NC(=O)[C@H](CCC(=O)O)NC(=O)[C@H](CC(=O)O)NC(=O)[C@H](CC(C)C)NC1=O` (stereo partly shown) [compound 33], the Kd on β-catenin is more than 30 µM. The same compound had an EC50 in test [1] of more than 30 µM.
For `CC[C@H](C)[C@H](NC(=O)[C@H](CO)NC(=O)[C@H](CCC(=O)O)NC(=O)[C@H](Cc1c[nH]c2ccccc12)NC(=O)[C@@H](N)CCSC)C(=O)N[C@@H](CC(C)C)C(=O)N[C@@H](CC(=O)O)C(=O)N[C@@H](CCC(=O)O)C(=O)N[C@@H](Cc1c[nH]cn1)C(=O)NC(C)(C(=O)N[C@@H](CCC(N)=O)C(=O)N[C@@H](CCCNC(=N)N)C(=O)N[C@H](C(=O)N[C@@H](Cc1c[nH]c2ccccc12)C(=O)NCC(N)=O)C(C)C)C(C)C` (stereo partly shown) [compound 34] (HELM PEPTIDE1{M.W.E.S.I.L.D.E.H.[CC(C)C(C)(N[*:1])C(=O)[*:2]].Q.R.V.W.G.[am]}$$$$V2.0), at β-catenin, the “β-Cat FP Hill slope” value came to 0.92 and the Kd was less than 0.4 µM. For the same compound, in test [1], the EC50 is more than 30 µM.
As to `CC[C@H](C)[C@H](NC(=O)C(C)(CO)NC(=O)[C@H](CCC(=O)O)NC(=O)[C@H](Cc1c[nH]c2ccccc12)NC(=O)[C@@H](N)CCSC)C(=O)N[C@@H](CC(C)C)C(=O)N[C@@H](CC(=O)O)C(=O)N[C@@H](CCC(=O)O)C(=O)N[C@@H](Cc1c[nH]cn1)C(=O)N[C@H](C(=O)N[C@@H](CCC(N)=O)C(=O)N[C@@H](CCCNC(=N)N)C(=O)N[C@H](C(=O)N[C@@H](Cc1c[nH]c2ccccc12)C(=O)NCC(N)=O)C(C)C)C(C)C` (stereo partly shown) [compound 35] (HELM PEPTIDE1{M.W.E.[CC(CO)(N[*:1])C(=O)[*:2]].I.L.D.E.H.V.Q.R.V.W.G.[am]}$$$$V2.0), on β-catenin, the “β-Cat FP Hill slope” value was 0.96 and the Kd is less than 0.4 µM. In addition, the EC50 in test [1] was more than 30 µM.
Regarding `CCCCCCCCCCCCCCCC(=O)NCC(=O)N[C@@H](Cc1c[nH]c2ccccc12)C(=O)N(C)[C@@H](Cc1c[nH]c2ccccc12)C(=O)N[C@@H](CCC(=O)O)C(=O)NC(C)(CO)C(=O)N[C@H](C(=O)N[C@@H](CC(C)C)C(=O)N[C@@H](CC(=O)O)C(=O)N[C@@H](CCC(=O)O)C(=O)N[C@@H](Cc1c[nH]cn1)C(=O)NC(C)(C(=O)N[C@@H](CCC(N)=O)C(=O)N[C@@H](CCCNC(=N)N)C(=O)N[C@H](C(=O)N[C@@H](Cc1c[nH]c2ccccc12)C(=O)O)C(C)C)C(C)C)[C@@H](C)CC` (stereo partly shown) [compound 398] (Palmitoyl-GW[NMeW]E[ξαMeS]ILDEH[ξαMeV]QRVW-OH), the EC50 in test [1] fell in the range of 7.5 to 15 µM.
Same read-out and setting: the result for `CCCCCCCCCCCCCCCC(=O)NCCCC(=O)N[C@@H](Cc1c[nH]c2ccccc12)C(=O)N(C)[C@@H](Cc1c[nH]c2ccccc12)C(=O)N[C@@H](CCC(=O)O)C(=O)NC(C)(CO)C(=O)N[C@H](C(=O)N[C@@H](CC(C)C)C(=O)N[C@@H](CC(=O)O)C(=O)N[C@@H](CCC(=O)O)C(=O)N[C@@H](Cc1c[nH]cn1)C(=O)NC(C)(C(=O)N[C@@H](CCC(N)=O)C(=O)N[C@@H](CCCNC(=N)N)C(=O)N[C@H](C(=O)N[C@@H](Cc1c[nH]c2ccccc12)C(=O)O)C(C)C)C(C)C)[C@@H](C)CC` (stereo partly shown) [compound 400] ({Palmitoyl-GABA}-W[NMeW]E[ξαMeS]ILDEH[ξαMeV]QRVW-OH) reads 7.5 to 15 µM.
For `CC[C@H](C)[C@H](NC(=O)[C@H](CO)NC(=O)[C@H](CCC(N)=O)NC(=O)[C@@H]1CCCN1C(=O)[C@H](Cc1c[nH]c2ccccc12)NC(C)=O)C(=O)N[C@@H](CC(C)C)C(=O)N[C@@H](CC(=O)O)C(=O)N[C@H]1CCC(=O)NCCCC[C@@H](C(=O)N[C@H](C(=O)N[C@@H](Cc2c[nH]c3ccccc23)C(N)=O)C(C)C)NC(=O)[C@H](CCC(N)=O)NC(=O)[C@H](C2CCCCC2)NC(=O)[C@H](Cc2c[nH]cn2)NC1=O` [compound 468] (HELM PEPTIDE1{[ac].W.P.Q.S.I.L.D.E.H.[O=C([C@@H](N[*:1])C1CCCCC1)[*:2]].Q.K.V.W.[am]}$PEPTIDE1,PEPTIDE1,9:R3-13:R3$$$V2.0), on β-catenin, the “β-Cat FP Hill slope” value came out at 0.86 and the Kd was less than 0.4 µM.
For the compound `CCCCCCCCCCCC(=O)N[C@@H](Cc1c[nH]c2ccccc12)C(=O)N1CCC[C@H]1C(=O)N[C@@H](CCC(N)=O)C(=O)N[C@@H](CO)C(=O)N[C@H](C(=O)N[C@@H](CC(C)C)C(=O)N[C@@H](CC(=O)O)C(=O)N[C@H]1CCC(=O)NCCCC[C@@H](C(=O)N[C@H](C(=O)N[C@@H](Cc2c[nH]c3ccccc23)C(N)=O)C(C)C)NC(=O)[C@H](CCC(N)=O)NC(=O)[C@H](C2CCCCC2)NC(=O)[C@H](Cc2c[nH]cn2)NC1=O)[C@@H](C)CC` [compound 469] (HELM PEPTIDE1{[CCCCCCCCCCCC(=O)[*:2]].W.P.Q.S.I.L.D.E.H.[O=C([C@@H](N[*:1])C1CCCCC1)[*:2]].Q.K.V.W.[am]}$PEPTIDE1,PEPTIDE1,9:R3-13:R3$$$V2.0), the Kd at β-catenin is less than 0.4 µM.
For the compound `CC[C@H](C)[C@H](NC(=O)[C@H](CO)NC(=O)[C@H](CCC(N)=O)NC(=O)[C@H](C)N(C)C(=O)[C@H](Cc1c[nH]c2ccccc12)NC(C)=O)C(=O)N[C@@H](CC(C)C)C(=O)N[C@@H](CC(=O)O)C(=O)N[C@H]1CCC(=O)NCCCC[C@@H](C(=O)N[C@H](C(=O)N[C@@H](Cc2c[nH]c3ccccc23)C(=O)NCC(N)=O)C(C)C)NC(=O)[C@H](CCC(N)=O)NC(=O)[C@H](C2CCCCC2)NC(=O)[C@H](Cc2c[nH]cn2)NC1=O` [compound 470] (HELM PEPTIDE1{[ac].W.[meA].Q.S.I.L.D.E.H.[O=C([C@@H](N[*:1])C1CCCCC1)[*:2]].Q.K.V.W.G.[am]}$PEPTIDE1,PEPTIDE1,9:R3-13:R3$$$V2.0), on β-catenin, the “β-Cat FP Hill slope” value is given as 0.81 and the Kd is less than 0.4 µM.
In the case of `CCCCCCCCCCCC(=O)N[C@@H](Cc1c[nH]c2ccccc12)C(=O)N(C)[C@@H](C)C(=O)N[C@@H](CCC(N)=O)C(=O)N[C@@H](CO)C(=O)N[C@H](C(=O)N[C@@H](CC(C)C)C(=O)N[C@@H](CC(=O)O)C(=O)N[C@H]1CCC(=O)NCCCC[C@@H](C(=O)N[C@H](C(=O)N[C@@H](Cc2c[nH]c3ccccc23)C(=O)NCC(N)=O)C(C)C)NC(=O)[C@H](CCC(N)=O)NC(=O)[C@H](C2CCCCC2)NC(=O)[C@H](Cc2c[nH]cn2)NC1=O)[C@@H](C)CC` [compound 471] (HELM PEPTIDE1{[CCCCCCCCCCCC(=O)[*:2]].W.[meA].Q.S.I.L.D.E.H.[O=C([C@@H](N[*:1])C1CCCCC1)[*:2]].Q.K.V.W.G.[am]}$PEPTIDE1,PEPTIDE1,9:R3-13:R3$$$V2.0), on β-catenin, the Kd is less than 0.4 µM.
Regarding `CCCCCCCCCCCC(=O)N[C@@H](Cc1c[nH]c2ccccc12)C(=O)N1CCC[C@H]1C(=O)N[C@@H](CCC(N)=O)C(=O)N[C@@H](CO)C(=O)N[C@H](C(=O)N[C@@H](CC(C)C)C(=O)N[C@@H](CC(=O)O)C(=O)N[C@H]1CCC(=O)NCCCC[C@@H](C(=O)N[C@H](C(=O)N[C@@H](Cc2c[nH]c3ccccc23)C(=O)NCC(N)=O)C(C)C)NC(=O)[C@H](CCC(N)=O)NC(=O)[C@H](C2CCCCC2)NC(=O)[C@H](Cc2c[nH]cn2)NC1=O)[C@@H](C)CC` [compound 473] (HELM PEPTIDE1{[CCCCCCCCCCCC(=O)[*:2]].W.P.Q.S.I.L.D.E.H.[O=C([C@@H](N[*:1])C1CCCCC1)[*:2]].Q.K.V.W.G.[am]}$PEPTIDE1,PEPTIDE1,9:R3-13:R3$$$V2.0), the Kd on β-catenin was less than 0.4 µM.
“H-GGGDDLGANDELISFKDEGEQEEKSSENSSAERDLADVKSSLVNEK-NH2 [compound 266]”: on β-catenin, the “β-Cat FP Hill slope” value was 0.88 and the Kd is less than 0.4 µM.
